Experimental data published in paper PMC7699860 (Molecules, 2020).

Legend:
[1] = tested on: Tel-23 (DNA telomeric G4) (DNA, G4) TAGGGTTAGGGTTAGGGTTAGGG; test: absorbance titration
[2] = tested on: poly(A)poly(U) (RNA, polymer) A/U; test: absorbance titration; details: Na+ (NaCl 0.1 M), NaCac 2.5 mM
poly(A) (RNA, polymer) A = test: absorbance titration; details: Na+ (NaCl 0.1 M), NaCac 2.5 mM, pH 7.0
[3] = target: T1, bovine serum albumin (BSA) (Bos taurus, UniProt P02769); test: BSA intrinsic fluorescence quenching titration ([…] °C), […] model; no adduct by ESI-MS; type: binding
T1 construct: gene ALB

[4] = tested on: poly(A)2poly(U) (RNA triple helix) (RNA, polymer) A/U; test: absorbance titration; details: Na+ (NaCl 0.1 M); NaCac 2.5 mM, pH 7.0

T1 sequence (P02769 25-607): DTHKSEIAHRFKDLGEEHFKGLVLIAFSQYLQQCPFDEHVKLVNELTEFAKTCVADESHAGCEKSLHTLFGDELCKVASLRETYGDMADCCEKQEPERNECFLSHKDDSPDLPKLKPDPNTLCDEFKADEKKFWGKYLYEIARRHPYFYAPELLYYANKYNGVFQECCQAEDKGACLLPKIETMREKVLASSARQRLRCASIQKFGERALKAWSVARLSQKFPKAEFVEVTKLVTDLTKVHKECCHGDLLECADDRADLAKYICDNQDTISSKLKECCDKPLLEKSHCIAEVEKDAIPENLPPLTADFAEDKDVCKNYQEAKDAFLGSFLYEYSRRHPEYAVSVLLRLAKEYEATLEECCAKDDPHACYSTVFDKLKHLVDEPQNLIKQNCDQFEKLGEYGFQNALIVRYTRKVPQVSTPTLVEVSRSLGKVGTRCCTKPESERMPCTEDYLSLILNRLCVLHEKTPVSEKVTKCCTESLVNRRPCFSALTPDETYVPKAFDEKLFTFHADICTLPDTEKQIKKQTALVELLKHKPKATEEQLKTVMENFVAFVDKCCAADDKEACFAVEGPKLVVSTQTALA

## CCN1[C]N(Cc2c3ccccc3cc3ccccc23)C=C1.CCN1[C]N(Cc2c3ccccc3cc3ccccc23)C=C1.[Au+]
[1]; unselective outer binding, fit not converging
  binding: yes
[2]; pH 7.0, external binding, fit not converging
  binding: yes
poly(A) (RNA, polymer) A; external binding, fit not converging
  binding: yes

## CCn1ccn(Cc2c3ccccc3cc3ccccc23)[c]1=[Ag]([Cl])=[c]1n(CC)ccn1Cc1c2ccccc2cc2ccccc12 [[Ag(EIA)2]Cl, bis(1-(anthracen-9-ylmethyl)-3-ethylimidazol-2-ylidene) silver chloride]
[3]
  BSA intrinsic fluorescence quenching titration (15-50 °C), 1:1 model; no adduct: the silver complex interacts with the protein but with a reversible weak process based on electrostatics

## CCN1[C]N(Cc2c3ccccc3cc3ccccc23)C=C1.CCN1[C]N(Cc2c3ccccc3cc3ccccc23)C=C1.[Ag+]
[4]
  binding: no
[1]; very slight spectral variations, conclusions state no interaction
  binding: weak
[2]; pH 7.0, 25.0 °C, apparent, per base pair, per base
  Kpoly(A)poly(U): (1.5 ± 3) × 10^3 M^-1
poly(A) (RNA, polymer) A
  binding: no
